Experimental data published in US20070149485A1, “SELECTED DOSAGE FOR THE TREATMENT OF CARDIOVASCULAR AND RELATED PATHOLOGIES” (Medicure International, Inc., priority 2005, published 2007).

Assays:
[1] = tested on: high-risk patients undergoing CABG surgery with cardiopulmonary bypass; test: Oral P5P in high-risk patients undergoing CABG surgery (randomized, double-blind, placebo-controlled): myocardial infarction and combined incidents to POD 30; format: in vivo, human; conditions: for Frequencies of myocardial infarction, cerebral infarction, or death, at POD 30: Myocardial infarction, cerebral infarction or death / Frequencies of myocardial infarction, cerebral infarction, or death, at POD 30: No myocardial infarction, cerebral infarction or death / Frequencies of myocardial infarction at POD 30: Myocardial Infarction / Frequencies of myocardial infarction at POD 30: No myocardial infarction: number of patients (% of group); for reducing post-CABG morbidity and mortality: CK-MB 100 ng/ml (post-hoc) as indicator; for reducing instances of myocardial infarction: vs placebo
Excerpt: A randomized, double-blind placebo-controlled, dose-ranging, parallel-arrn multi-center study was undertaken, on high-risk patients undergoing CABG surgery with cardiopulmonary bypass.
Patients were identified as “high risk” if they had two or more of the following risk factors: • Age greater than 65 years; • Current smoker;
Approximately 900 high risk pre-CABG patients in 42 different treatment centers in North America were screened and randomized to three groups of approximately 300 patients each, prior to their bypass surgery, as follows. Patients were either placed in a control group (placebo), treated orally with 250 mg/day of P5P (250 mg/day), or treated orally with 750 mg/day of P5P (750 mg/day).
The first dose of study medication was administered at 3-10 hours prior to CABG surgery. In the event of surgery delay or rescheduling, a second pre-operative dose of P5P was administered so that all patients received study medication 3-10 hours before surgery. Treatment continued for 30 days after surgery (post operative day (POD) 30). Patients received follow-up evaluations up to and including postoperative day (POD) 4, on POD 30 and on POD 90.
Patients were measured for combined incidence of cardiovascular death, nonfatal myocardial infarction (MI), and nonfatal cerebral infarction up to and including post-operative day 30 (POD 30). Patients were also measured for nonfatal myocardial infarction alone. All deaths without an identifiable non-cardiovascular cause were considered of cardiovascular origin.
Cerebral infarction (stroke) was defined clinically as any new sudden onset focal neurological deficit lasting at least 24 hours as assessed by a neurologist and after neuroimaging (computed tomography [CT] brain scan or magnetic resonance imaging [MRI]) had excluded an intracerebral hemorrhage. All patients suspected of having a stroke or transient ischemic attack (TIA) received a neurological examination (conducted by a neurologist or internist with expertise in cerebral vascular disease) within 24 hours of onset of symptoms. All patients suspected of having a stroke were submitted to cerebral imaging.
When determining whether a patient had myocardial infarction, the following definitions were used: • A peak creatine kinase—myocardial band (CK-MB) above a certain threshold. Since different experts and different prior art clinical trials used different cut-offs for this threshold, three different thresholds were used to determine whether a patient had myocardial infarction—a post-hoc cut off threshold of 100 ng/ml (a peak CK-MB of 100 ng/ml or greater on days up to and including POD 4), a post-hoc cut off threshold of 70 ng/ml, and a predefined cut off threshold of 50 ng/ml was used; • A new q-wave evidence of myocardial infarction along with CK-MB of 35 ng/ml or above on days up to and including POD 4; • A peak CK-MB of 5× ULN (25 ng/ml) or above occurring after POD 4; • A new q-wave evidence of myocardial infarction that was not present at POD 4; or • A q-wave or non-q-wave myocardial infarction as identified by the investigator and confirmed by the Clinical Endpoint Committee. A. Myocardial Infarction Rates CK-MB Cut-off of 100 ng/ml

[2] = tested on: adenosine triphosphate (ATP) induced calcium ion influx into cells; conditions: a recent evaluation; suggested antagonism of P2 purinoceptors; cited from earlier work
[3] = oral 250 mg/day, CK-MB cut-off 50 ng/ml
[4] = oral 250 mg/day, CK-MB cut-off 50 ng/ml (predefined)
[5] = oral 250 mg/day, CK-MB cut-off 70 ng/ml
[6] = oral 250 mg/day, CK-MB cut-off 70 ng/ml (post-hoc)
[7] = oral 250 mg/day, CK-MB cut-off 100 ng/ml
[8] = oral 250 mg/day, CK-MB cut-off 100 ng/ml (post-hoc)
[9] = oral 750 mg/day, CK-MB cut-off 50 ng/ml
[10] = oral 750 mg/day, CK-MB cut-off 50 ng/ml (predefined)
[11] = oral 750 mg/day, CK-MB cut-off 70 ng/ml
[12] = oral 750 mg/day, CK-MB cut-off 70 ng/ml (post-hoc)
[13] = oral 750 mg/day, CK-MB cut-off 100 ng/ml
[14] = oral 750 mg/day, CK-MB cut-off 100 ng/ml (post-hoc)

## Cc1ncc(COP(=O)(O)O)c(C=O)c1O [P5P, 3-hydroxy-2-methyl-5-[(phosphonooxy)methyl]-4-pyridine-carboxaldehyde]
[1]; [3]
  Frequencies of myocardial infarction, cerebral infarction, or death, at POD 30: Myocardial infarction, cerebral infarction or death: 65 (21.6%)
  Frequencies of myocardial infarction, cerebral infarction, or death, at POD 30: No myocardial infarction, cerebral infarction or death: 236 (78.4%)
  reducing total incidents (myocardial infarction, cerebral infarction, or death): highly effective
  reducing instances of myocardial infarction: highly effective
[1]; [4]
  Frequencies of myocardial infarction at POD 30: Myocardial Infarction: 59 (19.6%)
  Frequencies of myocardial infarction at POD 30: No myocardial infarction: 242 (80.4%)
[1]; [5]
  Frequencies of myocardial infarction, cerebral infarction, or death, at POD 30: Myocardial infarction, cerebral infarction or death: 41 (13.6%)
  Frequencies of myocardial infarction, cerebral infarction, or death, at POD 30: No myocardial infarction, cerebral infarction or death: 260 (86.4%)
  reducing instances of myocardial infarction: highly effective
[1]; [6]
  Frequencies of myocardial infarction at POD 30: Myocardial Infarction: 34 (11.3%)
  Frequencies of myocardial infarction at POD 30: No myocardial infarction: 267 (88.7%)
[1]; [7]
  Frequencies of myocardial infarction, cerebral infarction, or death, at POD 30: Myocardial infarction, cerebral infarction or death: 31 (10.3%)
  Frequencies of myocardial infarction, cerebral infarction, or death, at POD 30: No myocardial infarction, cerebral infarction or death: 270 (89.7%)
  reducing instances of myocardial infarction: highly effective
[1]; [8]
  Frequencies of myocardial infarction at POD 30: Myocardial Infarction: 23 (7.6%)
  Frequencies of myocardial infarction at POD 30: No myocardial infarction: 278 (92.4%)
[1]; [9]
  Frequencies of myocardial infarction, cerebral infarction, or death, at POD 30: Myocardial infarction, cerebral infarction or death: 77 (25.6%)
  Frequencies of myocardial infarction, cerebral infarction, or death, at POD 30: No myocardial infarction, cerebral infarction or death: 224 (74.4%)
  reducing total incidents (myocardial infarction, cerebral infarction, or death): did not reduce
  reducing instances of myocardial infarction: not effective
[1]; [10]
  Frequencies of myocardial infarction at POD 30: Myocardial Infarction: 71 (23.6%)
  Frequencies of myocardial infarction at POD 30: No myocardial infarction: 230 (76.4%)
[1]; [11]
  Frequencies of myocardial infarction, cerebral infarction, or death, at POD 30: Myocardial infarction, cerebral infarction or death: 47 (15.6%)
  Frequencies of myocardial infarction, cerebral infarction, or death, at POD 30: No myocardial infarction, cerebral infarction or death: 254 (84.4%)
  reducing total incidents (myocardial infarction, cerebral infarction, or death): highly effective
[1]; [12]
  Frequencies of myocardial infarction at POD 30: Myocardial Infarction: 38 (12.6%)
  Frequencies of myocardial infarction at POD 30: No myocardial infarction: 263 (87.4%)
[1]; [13]
  Frequencies of myocardial infarction, cerebral infarction, or death, at POD 30: Myocardial infarction, cerebral infarction or death: 34 (11.3%)
  Frequencies of myocardial infarction, cerebral infarction, or death, at POD 30: No myocardial infarction, cerebral infarction or death: 267 (88.7%)
  reducing total incidents (myocardial infarction, cerebral infarction, or death): highly effective
  reducing instances of myocardial infarction: highly effective
[1]; [14]
  Frequencies of myocardial infarction at POD 30: Myocardial Infarction: 23 (7.6%)
  Frequencies of myocardial infarction at POD 30: No myocardial infarction: 278 (92.4%)
[1]; oral 250 mg/day
  reducing post-CABG morbidity and mortality: effective
[1]; oral 250 mg/day, CK-MB cut-off 70 ng/ml, better than 750 mg/day
  reducing total incidents (myocardial infarction, cerebral infarction, or death): highly effective
[1]; oral 250 mg/day, CK-MB cut-off 100 ng/ml, better than 750 mg/day
  reducing total incidents (myocardial infarction, cerebral infarction, or death): highly effective
[1]; oral 750 mg/day
  reducing post-CABG morbidity and mortality: effective
[1]; oral 750 mg/day, CK-MB cut-off 70 ng/ml, not as effective as 250 mg/day
  reducing instances of myocardial infarction: effective
[1]; oral, CK-MB level greater than 50 ng/ml (pre-defined) or 70 ng/ml (post-hoc) as indicator
  effectiveness at reducing post-CABG morbidity and mortality, 250 mg/day compared with 750 mg/day: higher effectiveness
[2]
  adenosine triphosphate (ATP) induced calcium ion influx into cells: inhibits
